Target: T1, KRAS G12C 1-169, his-tagged protein, GDP-loaded (Homo sapiens, UniProt P01116, G12C)
T1 construct: KRAS G12C 1-169, his-tagged protein, GDP-loaded
Assay: Biochemical assay: covalent modification of KRAS G12C measured by mass spectrometry (RapidFire/TOF or Q-Exactive)
Conditions: covalent binding to KRAS G12C
Outline: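 Covalent adduct formation read by intact-mass spectrometry (TOF or Q Exactive Plus, charge envelopes deconvoluted into modified and unmodified species) after formic acid quench. Reactions contained 2 μM GDP-bound KRAS G12C 1-169 (his-tag) in Hepes/NaCl/MgCl2 buffer plus 10, 30 or 100 μM final compound, held 30 min, 2 h or 24 h at room temperature.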

| Compound | Binding % (compounds of structure (I)) | Binding % (compounds of structure (III)) |
| --- | --- | --- |
| C=CC(=O)N1CCN(c2nc(OCCN3CCC(F)(F)C3)nc3c(F)c(-c4c(O)cccc4F)c(Cl)cc23)CC1 [Example I-30, 1-(4-(6-chloro-2-(2-(3,3-difluoro-pyrrolidin-1-yl)ethoxy)-8-fluoro-7-(2-fluoro-6-hydroxyphenyl)quinazolin-4-yl)piperazin-1-yl) prop-2-en-1-one] | +++ (+++ indicates binding activity greater than 90%) | – |
| C=CC(=O)N1CCN(c2nc(OCCN3CCC(F)(F)CC3)nc3c(F)c(-c4c(O)cccc4F)c(Cl)cc23)CC1 [Example I-38, 1-(4-(6-chloro-2-(2-(4,4-difluoro-piperidin-1-yl)ethoxy)-8-fluoro-7-(2-fluoro-6-hydroxyphenyl)quinazolin-4-yl)piperazin-1-yl) prop-2-en-1-one] | +++ (+++ indicates binding activity greater than 90%) | – |
| C=CC(=O)N1CCN(c2nc(NC3CCN(C4CC4)CC3)nc3c(F)c(-c4c(O)cccc4F)c(Cl)cc23)CC1 (atropisomer, axis not shown) [Example I-79, (R)-1-(4-(6-chloro-2-(1-cyclopropyl-piperidin-4-ylamino)-8-fluoro-7-(2-fluoro-6-hydroxyphenyl)quinazolin-4-yl)piperazin-1-yl) prop-2-en-1-one] | + (+ indicates binding activity up to 50%) | – |
| C=CC(=O)N1CCN(c2nc(NC3CCCN(C(C)C)C3)nc3c(F)c(-c4c(O)cccc4F)c(Cl)cc23)CC1 (stereo not shown) [Example I-121, 1-(4-(6-chloro-8-fluoro-7-(2-fluoro-6-hydroxyphenyl)-2-(1-isopropyl-piperidin-3-ylamino)quinazolin-4-yl)piperazin-1-yl) prop-2-en-1-one] | +++ (+++ indicates binding activity greater than 90%) | – |
| C=CC(=O)N1CCN(c2nc(N3CC4(COC4)C3)nc3c(F)c(-c4c(O)cccc4F)c(Cl)cc23)CC1 [Example I-148, 1-(4-(6-chloro-8-fluoro-7-(2-fluoro-6-hydroxyphenyl)-2-(2-oxa-6-azaspiro[3.3]heptan-6-yl)quinazolin-4-yl)piperazin-1-yl) prop-2-en-1-one] | +++ (+++ indicates binding activity greater than 90%) | – |
| C=CC(=O)N1CCN(c2nc(OCCN3CCOCC3)nc3c(F)c(-c4c(O)cccc4F)c(Cl)cc23)CC1 (atropisomer, axis not shown) [Example I-28, (R)-1-(4-(6-chloro-8-fluoro-7-(2-fluoro-6-hydroxyphenyl)-2-(2-morpholino-ethoxy)quinazolin-4-yl)piperazin-1-yl)prop-2-en-1-one] | + (+ indicates binding activity up to 50%) | – |
| C=CC(=O)N1CCN(c2nc(NC3CCN(C(C)(C)C)CC3)nc3c(F)c(-c4c(C)ccc5[nH]ncc45)c(Cl)cc23)CC1 [Example I-177, 1-(4-(2-((1-(tert-butyl)piperidin-4-yl)amino)-6-chloro-8-fluoro-7-(5-methyl-1H-indazol-4-yl)quinazolin-4-yl)piperazin-1-yl) prop-2-en-1-one] | +++ (+++ indicates binding activity greater than 90%) | – |
| C=CC(=O)N1CCN(c2nc(OCc3cccc(C)n3)nc3c(F)c(-c4c(O)cccc4F)c(Cl)cc23)CC1 [Example I-99, 1-(4-(6-chloro-8-fluoro-7-(2-fluoro-6-hydroxyphenyl)-2-((6-methyl-pyridin-2-yl)methoxy)quinazolin-4-yl)piperazin-1-yl)prop-2-en-1-one] | +++ (+++ indicates binding activity greater than 90%) | – |
| C=CC(=O)N1CCN(c2nc(OCCN(CC)CC)nc3c(F)c(-c4c(O)cccc4F)c(Cl)cc23)CC1 (atropisomer, axis not shown) [Example I-87, (S)-1-(4-(6-chloro-2-(2-(diethylamino)ethoxy)-8-fluoro-7-(2-fluoro-6-hydroxyphenyl)quinazolin-4-yl)piperazin-1-yl) prop-2-en-1-one] | +++ (+++ indicates binding activity greater than 90%) | – |
| C=CC(=O)N1CCN(c2nc(NC3CCN(CC4CC4)CC3)nc3c(F)c(-c4c(O)cccc4F)c(Cl)cc23)CC1 [Example I-110, 1-(4-(6-chloro-2-(1-(cyclopropyl-methyl)piperidin-4-ylamino)-8-fluoro-7-(2-fluoro-6-hydroxyphenyl)quinazolin-4-yl)piperazin-1-yl) prop-2-en-1-one] | +++ (+++ indicates binding activity greater than 90%) | – |
| C=CC(=O)N1[C@H](C)CN(c2c(C#N)cnc3c(F)c(-c4c(O)cccc4F)c(Cl)cc23)C[C@@H]1C [III-43] | – | ++ (++ indicates activity from 50% to 90%) |
| C=CC(=O)N1CCN(c2nc(OC3CCN(C4CC4)CC3)nc3c(F)c(-c4c(C)ccc5[nH]ncc45)c(Cl)cc23)CC1 [Example I-194] | + (+ indicates binding activity up to 50%) | – |
| C=CC(=O)N1CCN(c2ncnc3c(F)c(-c4c(O)cccc4F)c(Cl)cc23)CC1C (stereo not shown) [III-5, 1-(4-(6-chloro-8-fluoro-7-(2-fluoro-6-hydroxy-phenyl)quinazolin-4-yl)-2-methyl-piperazin-1-yl)prop-2-en-1-one] | – | ++ (++ indicates activity from 50% to 90%) |
| C=CC(=O)N1CCN(c2nc(NC(=O)c3ccnc(C)c3)nc3c(F)c(-c4c(O)cccc4F)c(Cl)cc23)CC1 [Example I-181, N-(4-(4-acryloyl-piperazin-1-yl)-6-chloro-8-fluoro-7-(2-fluoro-6-hydroxyphenyl)quinazolin-2-yl)-2-methyliso-nicotinamide] | + (+ indicates binding activity up to 50%) | – |
| C=CC(=O)N1CCN(c2nc(OCCN(CC)CC)nc3c(F)c(-c4c(O)cccc4F)c(Cl)cc23)CC1 (atropisomer, axis not shown) [Example I-88, (R)-1-(4-(6-chloro-2-(2-(diethylamino)ethoxy)-8-fluoro-7-(2-fluoro-6-hydroxyphenyl)quinazolin-4-yl)piperazin-1-yl) prop-2-en-1-one] | + (+ indicates binding activity up to 50%) | – |
| C=CC(=O)N1CCN(c2nc(OCCc3ncccn3)nc3c(F)c(-c4c(O)cccc4F)c(Cl)cc23)CC1 [Example I-140, 1-(4-(6-chloro-8-fluoro-7-(2-fluoro-6-hydroxyphenyl)-2-(2-(pyrimidin-2-yl)ethoxy)quinazolin-4-yl)piperazin-1-yl) prop-2-en-1-one] | +++ (+++ indicates binding activity greater than 90%) | – |
| C=CC(=O)N1C[C@H](C)N(c2ncnc3c(F)c(-c4c(F)cccc4OC)c(Cl)cc23)C[C@H]1C [III-2, 1-((2R,5S)-4-(6-chloro-8-fluoro-7-(2-fluoro-6-methoxy-phenyl)quinazolin-4-yl)-2,5-dimethyl-piperazin-1-yl)prop-2-en-1-one] | – | + (+ indicates binding activity up to 50%) |
| C=CC(=O)N1CCN(c2nc(NC3CN(C4CCOCC4)C3)nc3c(F)c(-c4c(O)cccc4F)c(Cl)cc23)CC1 [Example I-185, 1-(4-(6-chloro-8-fluoro-7-(2-fluoro-6-hydroxyphenyl)-2-((1-(tetrahydro-2H-pyran-4-yl)azetidin-3-yl)amino)quinazolin-4-yl)piperazin-1-yl) prop-2-en-1-one] | + (+ indicates binding activity up to 50%) | – |
| C=CC(=O)N1CCN(c2nc(NC3CCN(CC(F)(F)F)CC3)nc3c(F)c(-c4c(C)ccc5[nH]ncc45)c(Cl)cc23)CC1 [Example I-12, 1-(4-(6-chloro-8-fluoro-7-(5-methyl-1H-indazol-4-yl)-2-(1-(2,2,2-trifluoroethyl)piperidin-4-ylamino)quinazolin-4-yl)piperazin-1-yl)prop-2-en-1-one] | ++ (++ indicates binding activity from 50 to 90%) | – |
| C=CC(=O)N1CCN(c2nc(OCCN3CCOCC3)nc3c(F)c(-c4c(O)cccc4F)c(Cl)cc23)CC1 (atropisomer, axis not shown) [Example I-29, (S)-1-(4-(6-chloro-8-fluoro-7-(2-fluoro-6-hydroxyphenyl)-2-(2-morpholino-ethoxy)quinazolin-4-yl)piperazin-1-yl)prop-2-en-1-one] | +++ (+++ indicates binding activity greater than 90%) | – |
| C=CC(=O)N1CCN(c2nc(OC3CCOCC3)nc3c(F)c(-c4c(C)ccc5[nH]ncc45)c(Cl)cc23)CC1 [Example I-13, 1-(4-(6-chloro-8-fluoro-7-(5-methyl-1H-indazol-4-yl)-2-(tetrahydro-2H-pyran-4-yloxy)quinazolin-4-yl)piperazin-1-yl)prop-2-en-1-one] | +++ (+++ indicates binding activity greater than 90%) | – |
| C=CC(=O)N1CCN(c2nc(NC3CCN(CC#N)CC3)nc3c(F)c(-c4c(C)ccc5[nH]ncc45)c(Cl)cc23)CC1 [Example I-165, 2-(4-((4-(4-acryloyl-piperazin-1-yl)-6-chloro-8-fluoro-7-(5-methyl-1H-indazol-4-yl)quinazolin-2-yl)amino)piperidin-1-yl) acetonitrile] | ++ (++ indicates binding activity from 50 to 90%) | – |
| C=CC(=O)N1CCN(c2ncnc3c(F)c(-c4c(O)cccc4F)c(Cl)cc23)CC1C(F)F (stereo not shown) [III-19, 1-(4-(6-chloro-8-fluoro-7-(2-fluoro-6-hydroxy-phenyl)quinazolin-4-yl)-2-(difluoro-methyl)piperazin-1-yl)prop-2-en-1-one] | – | +++ (+++ indicates binding activity greater than 90%) |
| C=CC(=O)Oc1cccc(F)c1-c1c(Cl)cc2c(N3CCN(C(=O)C=C)CC3)nc(OCC(=O)N(C)C)nc2c1F [Example I-9, 2-(4-(4-acryloyl-piperazin-1-yl)-6-chloro-2-(2-(dimethylamino)-2-oxoethoxy)-8-fluoroquinazolin-7-yl)-3-fluorophenyl acrylate] | ++ (++ indicates binding activity from 50 to 90%) | – |
| C=CC(=O)N1CCN(c2nc(OCC(O)CN(C)C)nc3c(F)c(-c4c(C)ccc5[nH]ncc45)c(Cl)cc23)CC1 (stereo not shown) [Example I-53, 1-(4-(6-chloro-2-(3-(dimethyl-amino)-2-hydroxy-propoxy)-8-fluoro-7-(5-methyl-1H-indazol-4-yl)quinazolin-4-yl)piperazin-1-yl)prop-2-en-1-one] | +++ (+++ indicates binding activity greater than 90%) | – |

Reference: patent publication US10829458B2 (Araxes Pharma LLC, priority 2015, dated 2020)
